Measurements published in patent US8217075B2, “2-amino-2-phenyl-alkanol derivatives, their preparation and pharmaceutical compositions containing them” (Oroxcell, priority 2008, dated 2012).

What was measured:
[1] = test system: abdominal pain by irritation and distension of the colon; conditions: rats, from 13.1 mg/kg and at doses of 26.2 mg/kg by subcutaneous route
[2] = test system: formalin-induced short- and long-phase pain; conditions: rat, dose of 39.3 mg/kg by subcutaneous route

With `CC[C@@](COC(=O)c1cc(OC)c(OC)c(OC)c1)(c1ccccc1)N(C)C(=O)OCc1ccc(OC)cc1` [Example 4] as the molecule, how does the “activity in abdominal pain test” value [1] read?
Its value is “demonstrated activity”.

And the “short- and long-phase activity” value [2]?
Its value is “demonstrated short- and long-phase activity”.
